Reference: patent US4927809A, “Oligopeptidyl nitrile derivatives, agents containing them and their use” (Behringwerke Aktiengesellschaft, priority 1986, dated 1990)

What was measured:
alpha human thrombin [1] = target: T1, alpha human thrombin (Homo sapiens, UniProt P00734); assay: Determination of the thrombin time (concentration doubling the thrombin time) in standard human plasma; type: biochemical; details: pH 7.6, 37° C., alpha human thrombin 3.0 IU/ml
T1 construct: alpha human thrombin
Experimental: The activity of the substances prepared as in Examples 1, 2 or 3 was ascertained by determination of the thrombin time. This entailed the concentration (in μmol/l) which doubled the thrombin time being ascertained.
50 μl of inhibitor solution of various concentrations, 50 μl of standard human plasma and 100 μl of diethylbarbituric acid/sodium acetate buffer, pH 7.6, were incubated at 37° C. for 45 seconds and 100 μl of alpha human thrombin (3.0 IU/ml) were added. The tests were carried out on a Schnitger & Gross apparatus for determination of the thrombin time.

mice = details: mouse, in vivo, iv
Experimental: The toxicity of H-D-Phe-Pro-Arg-CN × 2HCOOH […] in an animal model. The test substance was administered i.v. to mice. Clinically detectable pathological findings were found at and above a dose of 50 mg/kg. The dose for a therapeutic effect ought to be about 1-4 mg/kg.

alpha human thrombin [2] = target: T1, alpha human thrombin; assay: Inhibition constant (Ki) against alpha human thrombin; type: biochemical

In the case of `N#CC(CCCNC(=N)N)NC(=O)[C@@H]1CCCN1C(=O)[C@H](N)Cc1ccccc1.O=C(O)C(F)(F)F.O=C(O)C(F)(F)F` (stereo partly drawn) [Example 3, H-D-Phenylalanyl-L-prolyl-L-(1-amino-4-guanidino)valeronitrile ditrifluoroacetate], the “Doubling of the thrombin time at concentration (final conc.)” value (from here on “Doubling of the thrombin time”) (alpha human thrombin [1]) is reported as 1.1 µmol/L.

With `CC(C)(C)OC(=O)N[C@H](Cc1ccccc1)C(=O)N1CCC[C@H]1C(=O)NC(C#N)CCCNC(=N)N` (stereo partly drawn) [Example 1, N(alpha)-Boc-D-Phenylalanyl-L-prolyl-L-(1-amino-4-guanidino)valeronitrile] the “Doubling of the thrombin time” value (alpha human thrombin [1]) was 3.66 µmol/L.

In the case of `N#C[C@H](CCCNC(=N)N)NC(=O)[C@@H]1CCCN1C(=O)[C@H](N)Cc1ccccc1.O=CO.O=CO` [H-D-Phe-Pro-Arg-CN × 2HCOOH], the “Dose at and above which clinically detectable pathological findings were found” value (mice) is reported as at least 50 mg/kg and the Ki (alpha human thrombin [2]) is reported as 600 nM.

For `N#CC(CCCNC(=N)N)NC(=O)[C@@H]1CCCN1C(=O)[C@@H](Cc1ccccc1)NC(=O)OCC1c2ccccc2-c2ccccc21` (stereo partly drawn) [Example 2, N(alpha)-Fmoc-D-Phenylalanyl-L-prolyl-L-(1-amino-4-guanidino)valeronitrile], the “Doubling of the thrombin time” value (alpha human thrombin [1]) was 3.66 µmol/L.
